Experimental findings from ChEMBL document CHEMBL1201862, “PubChem BioAssay data set” (2004) are described below.

Structures are written as SMILES. Activity calls are given as the source filed them.

Series [1] can be described thus: HIV-1 Vif–A3G interaction blockers – biochemical, TR-FRET, GST-Vif 1-94, biotin-A3G peptide, dose response retest, primary screen (AID 1117319).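 Also: TR-FRET signal of purified GST-Vif binding a biotinylated A3G peptide; inhibitors lower the FRET signal by blocking Vif and A3G binding.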 Type of series: functional. Background: Time-resolved FRET reads energy transfer from a long-lived donor to a nearby acceptor.
For a further series, the target named is Genome polyprotein (Hepatitis C virus, UniProt Q2Q167). Put plainly: disruption of hepatitis C core self-association – biochemical, TR-FRET, dose response (AID 2159).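 Also: blocks dimerization of HCV core protein measured by TR-FRET between tagged core106 pairs.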 Further details: species or system Hepacivirus hominis.
Chain of Genome polyprotein (Q2Q167 whole entry): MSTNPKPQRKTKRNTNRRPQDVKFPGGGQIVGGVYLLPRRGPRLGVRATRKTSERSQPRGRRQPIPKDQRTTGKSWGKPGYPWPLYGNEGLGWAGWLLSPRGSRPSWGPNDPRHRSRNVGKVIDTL
The target in series [2] is Heat shock protein HSP 90-alpha (Homo sapiens, UniProt P07900). Put plainly: Luminescence-based dose response biochemical high throughput screening assay for inhibitors of the Heat Shock Protein 90 (HSP90). [Related pubchem assays: 1831 (Summary AID.), 1846 (Confirmation screen.), 1789 (Primary screen.)].
The nature of series [3]: viability loss in THP-1 monocytes – THP-1 cells, cytotoxicity control for Vif-APOBEC3G degradation inhibitor project, dose response (AID 1117359). Format: functional. Conditions: THP-1.
Series [4] concerns the target T1, Mannose-6-phosphate isomerase (Homo sapiens, UniProt P34949).
T1 sequence (P34949 whole entry): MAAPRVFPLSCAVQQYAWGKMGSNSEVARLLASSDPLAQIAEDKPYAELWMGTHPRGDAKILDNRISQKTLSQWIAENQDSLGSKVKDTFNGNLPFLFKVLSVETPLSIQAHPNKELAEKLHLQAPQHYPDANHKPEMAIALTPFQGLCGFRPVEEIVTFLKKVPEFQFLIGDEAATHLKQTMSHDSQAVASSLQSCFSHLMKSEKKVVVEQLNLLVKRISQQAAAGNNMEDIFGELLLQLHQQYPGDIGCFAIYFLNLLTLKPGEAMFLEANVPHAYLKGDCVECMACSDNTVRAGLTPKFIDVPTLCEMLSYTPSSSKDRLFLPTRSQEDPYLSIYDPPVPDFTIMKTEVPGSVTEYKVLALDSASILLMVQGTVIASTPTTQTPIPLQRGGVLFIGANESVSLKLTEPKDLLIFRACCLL
Kind of series: MPI enzyme activity inhibition – biochemical, fluorescence intensity, coupled assay, primary screen (AID 1209).

Series [5] can be described thus: A Cell Based Secondary Assay To Explore Cytotoxicity of Compounds that Sensitize Mycobacterium Tuberculosis to Beta-Lactam Antibiotics. Format: functional.
A short description of series [6]: HGIII-sPLA2 enzyme inhibition potency – biochemical, QFRET, IC50, dose response (AID 743457).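 Also: green fluorescence rise as the enzyme cleaves BODIPY PC-A2 in liposomes.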
Series [7] is described as follows: rise of 2N DNA cells, HeLa – IC50, dose response (AID 1117349). Type of series: functional, cell-based.
Series [8] is described as follows: CellTiter-Glo luminescence survival assay, SW480 colon tumor line, concentration-response curve, half-maximal inhibitory concentration (AID 1117338). Format: functional. For orientation: Cellular ATP, detected with luciferase, serves as a proxy for viable cell number.
Series [9] is described as follows: RKO cell viability reduction, dose response, CellTiter-Glo luminescence (AID 1117322). Format: functional.
Series [10] in a line: cytotoxicity toward HCT116 cells – cell-based, CellTiter-Glo luminescence, IC50, dose response (AID 1117332). Type of series: functional. The note with it: HCT-116.
Series [11] can be described thus: SNU-C1 cell viability reduction, dose response, CellTiter-Glo luminescence (AID 1117323). Format: functional, cell-based.
A short description of series [12]: cytotoxicity toward Colo320 cells – cell-based, CellTiter-Glo luminescence, IC50, dose response (AID 1117334). Format: functional. The note with it: COLO 320.
Series [13] can be described thus: rise of 4N DNA cells, HeLa – IC50, dose response (AID 1117351). Format: functional, cell-based.
Series [14] can be described thus: cytotoxicity toward HT-29 cells – cell-based, CellTiter-Glo luminescence, IC50, dose response (AID 1117330). Format: functional.
A short description of series [15]: Reduced DLD-1 viability, concentration-response, CellTiter-Glo luminescence (AID 1117352). Type of series: functional.
Series [16] deals with T1, Mannose-6-phosphate isomerase. Kind of series: MPI inhibition at elevated mannose 6-phosphate – biochemical, fluorescence intensity, high mannose 6-phosphate, primary screen (AID 1220).
In series [17] the target is DNA dC->dU-editing enzyme APOBEC-3G (Homo sapiens, UniProt Q9HC16). Put plainly: Dose Response confirmation of small molecule APOBEC3G DNA Deaminase Inhibitors via a fluorescence-based single-stranded DNA deaminase assay. [Related pubchem assays (depositor defined):AID493012, AID493028]. Format: functional.
Chain of DNA dC->dU-editing enzyme APOBEC-3G (Q9HC16 whole entry): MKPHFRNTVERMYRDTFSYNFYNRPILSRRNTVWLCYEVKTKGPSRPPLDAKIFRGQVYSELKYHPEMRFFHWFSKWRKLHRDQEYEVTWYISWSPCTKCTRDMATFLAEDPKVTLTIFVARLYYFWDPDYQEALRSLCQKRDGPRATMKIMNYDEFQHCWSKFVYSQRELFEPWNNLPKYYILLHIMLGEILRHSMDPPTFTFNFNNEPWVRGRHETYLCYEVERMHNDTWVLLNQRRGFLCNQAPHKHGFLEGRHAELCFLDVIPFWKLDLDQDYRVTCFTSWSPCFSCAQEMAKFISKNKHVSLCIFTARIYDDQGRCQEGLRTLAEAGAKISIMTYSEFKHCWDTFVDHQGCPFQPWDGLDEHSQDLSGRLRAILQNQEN
Series [18] has as its target Voltage-gated inwardly rectifying potassium channel KCNH2 (Homo sapiens, UniProt Q12809). Kind of series: concentration-dependent hERG rescue from blockers – cell-based, thallium flux, dose response (AID 2121). Format: ADME. In general terms: hERG is a cardiac potassium channel; its block is linked to QT prolongation.
Series [19] can be described thus: Luminescence Cell-Based Dose Retest to Confirm Inhibitors of Cancer Stem Cells. [Related pubchem assays (depositor defined):AID2717, AID2721]. Format: functional. Conditions: Homo sapiens.
A further series has as its target Cytochrome P450 2C19 (Homo sapiens, UniProt P33261). Kind of series: Cytochrome panel assay with activity outcomes. Panel member name: p450-cyp2c19 Compounds with AC50 equal or less than 10 uM are considered active. Conditions: read-out: AC50. Type of series: functional.
A further series deals with T2, Cytochrome P450 1A2 (Homo sapiens, UniProt P05177).
T2 sequence (P05177 whole entry): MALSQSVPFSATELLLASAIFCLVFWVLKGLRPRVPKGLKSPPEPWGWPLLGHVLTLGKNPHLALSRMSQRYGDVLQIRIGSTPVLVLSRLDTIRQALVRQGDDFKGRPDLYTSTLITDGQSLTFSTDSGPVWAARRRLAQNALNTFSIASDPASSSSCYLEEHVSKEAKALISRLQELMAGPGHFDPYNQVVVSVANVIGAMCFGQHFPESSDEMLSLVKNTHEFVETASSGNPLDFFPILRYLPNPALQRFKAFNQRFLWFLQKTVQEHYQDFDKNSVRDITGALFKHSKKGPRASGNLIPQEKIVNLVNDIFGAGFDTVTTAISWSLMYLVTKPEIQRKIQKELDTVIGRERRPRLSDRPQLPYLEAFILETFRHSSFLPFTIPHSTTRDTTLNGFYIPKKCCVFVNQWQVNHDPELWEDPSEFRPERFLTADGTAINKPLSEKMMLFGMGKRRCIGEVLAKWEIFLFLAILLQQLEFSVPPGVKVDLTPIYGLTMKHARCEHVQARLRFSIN

Another series has as its target Cytochrome P450 2C9 (Homo sapiens, UniProt P11712).
Series [20] addresses T3, Corticotropin-releasing factor receptor 2/Corticotropin-releasing factor-binding protein (Homo sapiens, UniProt P24387+Q13324).
T3 sequence (Q13324 whole entry): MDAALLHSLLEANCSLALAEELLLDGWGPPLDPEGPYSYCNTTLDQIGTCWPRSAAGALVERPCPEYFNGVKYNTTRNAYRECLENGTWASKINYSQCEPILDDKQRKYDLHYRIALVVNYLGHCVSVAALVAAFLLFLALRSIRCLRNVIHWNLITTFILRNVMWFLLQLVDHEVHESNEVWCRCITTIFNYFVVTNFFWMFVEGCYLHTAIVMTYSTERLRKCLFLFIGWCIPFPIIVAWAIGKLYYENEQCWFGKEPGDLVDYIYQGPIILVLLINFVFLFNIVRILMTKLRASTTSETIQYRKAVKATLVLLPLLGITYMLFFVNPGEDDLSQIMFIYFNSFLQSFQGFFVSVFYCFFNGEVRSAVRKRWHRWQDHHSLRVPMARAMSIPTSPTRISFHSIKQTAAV
T3 sequence (P24387 whole entry): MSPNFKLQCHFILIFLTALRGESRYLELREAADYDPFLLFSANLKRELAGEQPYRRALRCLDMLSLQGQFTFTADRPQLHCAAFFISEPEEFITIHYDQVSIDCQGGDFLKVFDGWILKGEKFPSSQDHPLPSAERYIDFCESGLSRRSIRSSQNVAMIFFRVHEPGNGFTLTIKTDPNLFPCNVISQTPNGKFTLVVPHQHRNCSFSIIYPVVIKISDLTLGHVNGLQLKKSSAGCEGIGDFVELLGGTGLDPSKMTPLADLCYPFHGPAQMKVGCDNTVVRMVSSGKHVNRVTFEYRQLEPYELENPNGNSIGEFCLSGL
Kind of series: activators of CRF receptor 2 with binding protein – uHTS hits, confirmation (AID 602473). Type of series: functional. Conditions: read-out: EC50_Mean.

Series [21] can be described thus: luciferase reporter signal suppression in cells – H4 neuroglioma cells, luminescence, dose response (AID 1990). Type of series: functional, cell-based.
Series [22] can be described thus: Luminescence Cell-Based Dose Response HTS to Identify Inhibitors of 5'UTR Stem-Loop Driven Prion Protein mRNA Translation in H4 Neuroglioblastoma Cells. [Related pubchem assays: 1827 (Project Summary), 1813 (Primary HTS)]. Format: functional.
The nature of series [23]: alpha-synuclein stem-loop luciferase translation blockers – H4 neuroglioma cells, luminescence, confirmation (AID 1988). Type of series: functional, cell-based.
Series [24] in a line: CCR5-tropic HIV-1 fusion blockers – cell-based, CCR5-tropic Env, dose response (AID 2279). Format: functional.
Series [25] deals with T4, Microphthalmia-associated transcription factor (Homo sapiens, UniProt O75030).
T4 sequence (O75030 whole entry): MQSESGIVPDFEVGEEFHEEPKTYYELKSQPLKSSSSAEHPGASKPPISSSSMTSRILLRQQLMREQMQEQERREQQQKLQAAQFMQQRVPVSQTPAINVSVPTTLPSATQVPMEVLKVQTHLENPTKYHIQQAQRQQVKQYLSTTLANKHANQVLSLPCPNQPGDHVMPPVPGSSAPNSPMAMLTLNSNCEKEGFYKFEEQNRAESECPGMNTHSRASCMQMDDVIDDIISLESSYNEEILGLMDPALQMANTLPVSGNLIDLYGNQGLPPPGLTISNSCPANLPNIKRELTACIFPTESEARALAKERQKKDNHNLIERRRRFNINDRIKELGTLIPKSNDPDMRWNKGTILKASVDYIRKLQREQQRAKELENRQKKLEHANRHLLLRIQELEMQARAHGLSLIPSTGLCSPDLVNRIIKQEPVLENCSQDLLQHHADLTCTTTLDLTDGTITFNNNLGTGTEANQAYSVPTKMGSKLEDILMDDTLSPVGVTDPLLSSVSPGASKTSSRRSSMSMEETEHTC
Put plainly: reducers of TRPM1 reporter luminescence, concentration series – cell-based, SK-MEL-5, cherry-picked, set 3, MITF inhibitor project, dose response (AID 493073).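 Also: SK-MEL-5 melanoma cells with luciferase driven by the MITF target TRPM1 promoter.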 Type of series: functional.

Series [26] can be described thus: cells. Type of series: functional, cell-based.
Series [27] is described as follows: M. tuberculosis H37Rv growth inhibitors, H37Rv strain (AID 1626). Format: functional.
Series [28] is described as follows: cells. Format: functional, cell-based. The source holds these as a separate data set.

Chain of Voltage-gated inwardly rectifying potassium channel KCNH2 (Q12809 whole entry): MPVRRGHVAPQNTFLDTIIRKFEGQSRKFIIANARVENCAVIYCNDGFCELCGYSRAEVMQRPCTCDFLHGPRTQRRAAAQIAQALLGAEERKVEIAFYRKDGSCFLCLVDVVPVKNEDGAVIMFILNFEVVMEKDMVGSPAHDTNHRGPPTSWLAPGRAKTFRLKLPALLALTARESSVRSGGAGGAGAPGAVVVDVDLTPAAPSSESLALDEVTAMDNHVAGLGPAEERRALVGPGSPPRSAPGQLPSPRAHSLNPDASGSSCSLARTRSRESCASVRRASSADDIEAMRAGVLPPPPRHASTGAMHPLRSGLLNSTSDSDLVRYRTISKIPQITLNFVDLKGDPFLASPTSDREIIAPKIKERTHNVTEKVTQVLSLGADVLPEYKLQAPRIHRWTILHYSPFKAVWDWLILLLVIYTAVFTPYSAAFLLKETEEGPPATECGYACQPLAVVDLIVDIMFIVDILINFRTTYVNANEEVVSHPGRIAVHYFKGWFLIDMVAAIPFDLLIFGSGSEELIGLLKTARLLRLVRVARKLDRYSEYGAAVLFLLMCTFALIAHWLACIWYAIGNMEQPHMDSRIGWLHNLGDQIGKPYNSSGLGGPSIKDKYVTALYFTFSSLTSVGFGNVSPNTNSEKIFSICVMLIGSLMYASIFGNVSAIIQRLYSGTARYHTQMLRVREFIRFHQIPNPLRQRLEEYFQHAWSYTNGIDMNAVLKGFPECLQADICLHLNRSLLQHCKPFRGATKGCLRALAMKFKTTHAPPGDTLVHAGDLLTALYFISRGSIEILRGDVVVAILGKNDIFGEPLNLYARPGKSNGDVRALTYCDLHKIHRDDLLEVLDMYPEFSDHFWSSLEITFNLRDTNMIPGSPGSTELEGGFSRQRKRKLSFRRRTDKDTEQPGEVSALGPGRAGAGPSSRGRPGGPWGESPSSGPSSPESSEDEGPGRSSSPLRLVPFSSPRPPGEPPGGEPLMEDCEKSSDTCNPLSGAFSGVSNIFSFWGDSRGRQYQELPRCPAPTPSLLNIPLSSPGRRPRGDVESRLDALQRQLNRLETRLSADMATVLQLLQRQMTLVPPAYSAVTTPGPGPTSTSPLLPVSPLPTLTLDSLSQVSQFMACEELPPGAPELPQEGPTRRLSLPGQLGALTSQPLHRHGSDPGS
Chain of Cytochrome P450 2C9 (P11712 whole entry): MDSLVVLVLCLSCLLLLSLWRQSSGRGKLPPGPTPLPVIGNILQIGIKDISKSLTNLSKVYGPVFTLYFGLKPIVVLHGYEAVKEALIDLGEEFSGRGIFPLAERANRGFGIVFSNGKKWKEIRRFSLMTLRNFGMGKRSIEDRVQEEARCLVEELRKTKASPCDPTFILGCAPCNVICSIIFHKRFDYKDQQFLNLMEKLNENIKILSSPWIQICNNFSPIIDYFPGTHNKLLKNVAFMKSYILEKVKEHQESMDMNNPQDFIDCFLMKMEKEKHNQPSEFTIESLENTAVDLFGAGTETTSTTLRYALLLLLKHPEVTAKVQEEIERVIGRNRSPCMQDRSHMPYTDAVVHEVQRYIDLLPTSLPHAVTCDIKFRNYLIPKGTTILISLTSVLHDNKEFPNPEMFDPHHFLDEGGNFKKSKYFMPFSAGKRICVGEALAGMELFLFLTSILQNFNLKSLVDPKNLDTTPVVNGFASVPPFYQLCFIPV
Chain of Cytochrome P450 2C19 (P33261 whole entry): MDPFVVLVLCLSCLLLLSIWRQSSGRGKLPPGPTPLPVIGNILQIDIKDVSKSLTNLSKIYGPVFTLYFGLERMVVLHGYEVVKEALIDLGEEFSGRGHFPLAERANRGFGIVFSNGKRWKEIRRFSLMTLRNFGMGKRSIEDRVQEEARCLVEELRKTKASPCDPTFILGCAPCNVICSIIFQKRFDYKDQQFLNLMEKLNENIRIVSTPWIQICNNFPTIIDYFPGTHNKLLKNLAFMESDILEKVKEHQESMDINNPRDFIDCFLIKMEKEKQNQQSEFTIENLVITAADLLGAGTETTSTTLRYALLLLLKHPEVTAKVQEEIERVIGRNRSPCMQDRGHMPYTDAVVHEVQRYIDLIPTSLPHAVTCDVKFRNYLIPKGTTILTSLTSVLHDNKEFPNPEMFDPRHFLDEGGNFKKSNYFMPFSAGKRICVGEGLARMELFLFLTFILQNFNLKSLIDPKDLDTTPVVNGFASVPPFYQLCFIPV

The term IC50 denotes the concentration needed to halve the response being measured. For `N#Cc1ccccc1NC(=O)CNc1ccc(Cl)c(C(F)(F)F)c1`, the IC50 in series [1] is > 100 µM (active).
In the case of `CCCCn1c(SCC(=O)Nc2cc(C)on2)nc2ccccc2c1=O`, the IC50 on Genome polyprotein is recorded as > 49.8 µM (not active).
Regarding `Cc1cccc(N(O)C(=O)Nc2cccc(Cl)c2)c1`, the IC50 in series [2] is 5.44 µM (active).
In general, CC50 refers to the concentration giving 50% cytotoxicity. Turning to `CCOC(=O)C1CCN(C(=O)c2ccc3snnc3c2)CC1`, the CC50 in series [3] was > 40 µM (active).
Consider `Cc1cc(C)cc(N2C(=O)CC(Sc3nnc[nH]3)C2=O)c1` (stereo not drawn), for which the IC50 in series [4] is on record as > 50 µM (not active).
On to `Cc1cccc(OCc2n[nH]c(-c3ccccn3)n2)c1`, for which the CC50 in [5] is 28 µM (active).
As to `Cc1ccc(CCNC(=O)C2CCCN(S(=O)(=O)c3c(C)noc3/C=C/N(C)C)C2)cc1` (stereo not drawn), the IC50 in [1] was > 100 µM (active).
As to `Cc1ccc2c(c1)c1c3n2CCNC3CCC1` (stereo not drawn), the IC50 in series [6] is > 122 µM (inactive); in series [7] it was > 10 µM (inactive); in [8], > 20 µM (inactive); in series [9] it was > 20 µM (inactive); in series [10], > 20 µM (inactive); in series [11], 2.48 µM (active). The IC50 was > 20 µM (inactive) in [12], > 10 µM (inactive) in series [13], > 20 µM (inactive) in series [14] and > 20 µM (inactive) in series [15].
With `O=C(/C=C/c1ccccc1)Nc1cccc(S(=O)(=O)Nc2ccccc2F)c1`, the IC50 in series [16] was 20 µM (active); in series [17], 31.9 µM (active).
Consider `COC(=O)c1c(NS(=O)(=O)c2ccc3ccccc3c2)sc2c1CCCC2`, for which the EC50 in [18] is 7.18 µM (active).
The term AC50 denotes the concentration at which the activity in the assay is half-maximal. Turning to `CC(C)(C)c1ccc(OCC(=O)N/N=C/c2cc(Br)ccc2OC(=O)c2ccco2)cc1`, in series [5], the CC50 is 15 µM (active). In addition, the AC50 in [19] is 2.29 µM (active); at Cytochrome P450 2C19 it was 1.26 µM (inconclusive); on Cytochrome P450 1A2, 5.01 µM (inconclusive); at Cytochrome P450 2C9 it was “inconclusive”.
On to `O=C(NC(=S)Nc1nc2c(s1)CSc1ccccc1-2)c1ccccc1`, for which the IC50 in series [4] and in [16] was > 50 µM (not active) in each case. Besides, in series [18], the EC50 is 5.11 µM (active).
Turning to `Cc1ccc2oc(=O)c(/C=C(\O)c3ccco3)nc2c1`, the IC50 in series [2] is 5.13 µM (active). In addition, in [20], the EC50 was 4.74 µM (active).
Turning to `COc1cc(/C=N/NS(=O)(=O)c2ccc3ccccc3c2)ccc1OCc1ccc(C(=O)O)cc1`, the EC50 in series [21] was 9.11 µM (inconclusive); in [22], 10.5 µM (active); in [23], 7.05 µM (active). Also, the IC50 in series [24] was 23.6 µM (active). Also, the AC50 in series [25] was 4.78 µM (active).
As for `CCOc1ccc(/C=C/C(=O)c2ccccc2)cc1OC`, the EC50 in “cells [26]” was > 350 µM (not active); in the series “cells [28]” it was 10.2 µM (active). Moreover, the IC50 in series [27] was > 100 µM (active).
